The experiment deals with Bacillus cereus, Staphylococcus aureus, Pseudomonas aeruginosa, Escherichia coli, Aspergillus flavus, Chrysosporium keratinophilum. The experiment in a line: Agar plate disc-diffusion antimicrobial activity. The class given is cell-based. As to conditions: disc wetted with 10 μL of 10 mg/mL in DMSO; 37° C., 48 h (72 h for fungi); gram positive and gram-negative bacteria and fungi; result in words only. The method, then:
The agar plate disc-diffusion method was applied. Sterilized filter papers (6 mm in diameter) were wetted with 10 μL of a solution of 2-(benzo[d]oxazol-2-yl)-N′-(2-(5-phenyl-1,3,4-oxadiazol-2-ylthio)acetoxy)acetimidamide (3) to be tested, containing 10 mg/mL in DMSO, and the discs were allowed to air dry. The discs were then placed onto the surface of agar plates (nutrient agar for bacteria and Sabouraud's dextrose agar for fungi) seeded with the test organism. Each plate contained 15 mL of the agar medium, previously seeded with 0.2 mL of the broth culture of each organism pregrown for 18 hours. The plates were incubated at 37° C. for 48 h, and 72 h for fungi. The inhibition zones were measured in mm. Discs impregnated with DMSO were used as a control, and its inhibition zone was subtracted from the tested compound actual inhibition zone. […] The antibacterial activity was screened against gram positive bacteria namely Bacillus cereus and Staphylococcus aureus and gram-negative bacterial strains namely Pseudomonas aeruginosa and Escherichia coli, while the antifungal activity was screened against Aspergillus flavus and Chrysosporium keratinophilum.

The text below walks through data of patent US11958843B1, “2-(benzo[d]oxazol-2-yl)-n′-(2-(5-phenyl-1,3,4-oxadiazol-2-ylthio)acetoxy)acetimidamide as an antimicrobial compound” (priority 2023, dated 2024).

Structures are written as SMILES.

As for `N/C(Cc1nc2ccccc2o1)=N\OC(=O)CSc1nnc(-c2ccccc2)o1` [compound 3, 2-(benzo[d]oxazol-2-yl)-N′-(2-(5-phenyl-1,3,4-oxadiazol-2-ylthio)acetoxy)acetimidamide], the “antimicrobial activities (inhibition zones)” value is listed as “high antimicrobial activities”.
